From patent US6737383B1, “Herbicidal oxadiazolidines” (priority 1999, dated 2004)

Legend:
blackgrass = test: Test B pre/postemergence blackgrass; type: in vivo, Alopecurus myosuroides
How it was run: (§1)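 Herbicidal effect was estimated by eye on a ten-point control scale after plants spent twelve to sixteen days in a greenhouse following soil or foliar treatment. Foliar sprays targeted plants at one to four leaves; all doses were formulated in a non-phytotoxic solvent with surfactant.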

rice = test: Test B flood test rice; type: in vivo, Oryza sativa
How it was run: (§2)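 Plants were grown to the 2-leaf stage before treatment with test chemical, then held in a greenhouse for twelve to sixteen days. Injury was visually rated against untreated controls on a 0–10 scale, where 0 is no effect and 10 is complete control.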

wild oat = test: Test B pre/postemergence wild oat; type: in vivo, Avena fatua
How it was run: as §1

wheat = test: Test B pre/postemergence wheat; type: in vivo, Triticum aestivum
How it was run: as §1

duck salad = test: Test B flood test duck salad; type: in vivo, Heteranthera limosa
How it was run: as §2

corn = test: Test B pre/postemergence corn; type: in vivo, Zea mays
How it was run: as §1

crabgrass = test: Test B pre/postemergence crabgrass; type: in vivo, Digitaria sanguinalis
How it was run: as §1

giant foxtail = test: Test B pre/postemergence giant foxtail; type: in vivo, Setaria faberii
How it was run: as §1

rape = test: Test B pre/postemergence rape; type: in vivo, Brassica napus
How it was run: as §1

morningglory = test: Test B pre/postemergence morningglory; type: in vivo, Ipomoea hederacea
How it was run: as §1

purple nutsedge = test: Test B pre/postemergence purple nutsedge; type: in vivo, Cyperus rotundus
How it was run: as §1

pigweed = test: Test B pre/postemergence pigweed; type: in vivo, Amaranthus retroflexus
How it was run: as §1

velvetleaf = test: Test B pre/postemergence velvetleaf; type: in vivo, Abutilon theophrasti
How it was run: as §1

surinam grass = test: Test B pre/postemergence surinam grass; type: in vivo, Brachiaria decumbens
How it was run: as §1

soybean = test: Test B pre/postemergence soybean; type: in vivo, Glycine max
How it was run: as §1

bedstraw = test: Test B pre/postemergence bedstraw; type: in vivo, Galium aparine
How it was run: as §1

[1] = Postemergence, Rate 125 g/ha, scale of 0 to 10 where 0 is no effect and 10 is complete control
[2] = Preemergence, Rate 62 g/ha, scale of 0 to 10 where 0 is no effect and 10 is complete control
[3] = Preemergence, Rate 125 g/ha, 0 is no effect, 10 is complete control
[4] = Preemergence, Rate 250 g/ha, scale 0 to 10, 0 is no effect, 10 is complete control
[5] = Preemergence, Rate 500 g/ha, scale 0 to 10 (0 no effect, 10 complete control)
[6] = Rate 62 g/ha, Postemergence, scale of 0 to 10 where 0 is no effect and 10 is complete control
[7] = Rate 250 g/ha, Postemergence, scale 0 to 10, 0 is no effect, 10 is complete control
[8] = Rate 500 g/ha, Postemergence, scale 0 to 10
[9] = Rate 62 g/ha, headed Pre-emergence (flood test species), scale 0 to 10 (0 no effect, 10 complete control)
[10] = Rate 125 g/ha, Pre-emergence, flood test species, scale 0 to 10 where 0 is no effect and 10 is complete control
[11] = Rate 250 g/ha, Pre-emergence, flood-test species, scale 0 to 10, 0 is no effect, 10 is complete control
[12] = Rate 500 g/ha, headed Pre-emergence (flood test species), scale 0 to 10 (0 no effect, 10 complete control)

CC(C)N(Cc1ccccc1)C(=O)n1oc(=O)n(C(C)C)c1=O [Compound 165]
Blackgrass plant response rating (blackgrass; [1]): 3
Blackgrass plant response rating (blackgrass; [2]): 0
Blackgrass plant response rating (0 to 10 scale) (blackgrass; [3]): 3
Blackgrass plant response rating (blackgrass; [4]): 6
Blackgrass plant response rating (blackgrass; [5]): 8
Blackgrass plant response rating (blackgrass; [6]): 0
Plant response rating, Blackgrass (blackgrass; [7]): 7
Blackgrass plant response rating (blackgrass; [8]): 8
Rice plant response rating (rice; [9]): 0
Rice plant response rating (rice; [10]): 0
Rice plant response rating (rice; [11]): 0
Plant response rating, Rice (rice; [12]): 0
Wild oats plant response rating (wild oat; [2]): 4
Wild oats plant response rating (0 to 10 scale) (wild oat; [3]): 4
Wild oats plant response rating (wild oat; [4]): 4
Wild oats plant response rating (wild oat; [5]): 6
Plant response rating, Wild oats (wild oat; [7]): 3
Wild oats plant response rating (wild oat; [8]): 3
Wheat plant response rating (wheat; [2]): 0
Wheat plant response rating (0 to 10 scale) (wheat; [3]): 0
Wheat plant response rating (wheat; [4]): 0
Wheat plant response rating (wheat; [5]): 2
Plant response rating, Wheat (wheat; [7]): 2
Wheat plant response rating (wheat; [8]): 3
Ducksalad plant response rating (duck salad; [9]): 0
Ducksalad plant response rating (duck salad; [10]): 0
Ducksalad plant response rating (duck salad; [11]): 0
Plant response rating, Ducksalad (duck salad; [12]): 0
Corn plant response rating (corn; [1]): 0
Corn plant response rating (corn; [2]): 0
Corn plant response rating (0 to 10 scale) (corn; [3]): 0
Corn plant response rating (corn; [4]): 0
Corn plant response rating (corn; [5]): 0
Corn plant response rating (corn; [6]): 0
Plant response rating, Corn (corn; [7]): 3
Corn plant response rating (corn; [8]): 3
Crabgrass plant response rating (crabgrass; [1]): 4
Crabgrass plant response rating (crabgrass; [2]): 4
Crabgrass plant response rating (0 to 10 scale) (crabgrass; [3]): 7
Crabgrass plant response rating (crabgrass; [4]): 8
Crabgrass plant response rating (crabgrass; [5]): 8
Crabgrass plant response rating (crabgrass; [6]): 2
Plant response rating, Crabgrass (crabgrass; [7]): 9
Crabgrass plant response rating (crabgrass; [8]): 9
Giant foxtail plant response rating (giant foxtail; [1]): 1
Giant foxtail plant response rating (giant foxtail; [2]): 6
Giant foxtail plant response rating (0 to 10 scale) (giant foxtail; [3]): 7
Giant foxtail plant response rating (giant foxtail; [4]): 8
Giant foxtail plant response rating (giant foxtail; [5]): 9
Giant foxtail plant response rating (giant foxtail; [6]): 0
Plant response rating, Giant foxtail (giant foxtail; [7]): 5
Giant foxtail plant response rating (giant foxtail; [8]): 8
Rape plant response rating (rape; [1]): 0
Rape plant response rating (rape; [2]): 0
Rape plant response rating (0 to 10 scale) (rape; [3]): 0
Rape plant response rating (rape; [4]): 4
Rape plant response rating (rape; [5]): 10
Rape plant response rating (rape; [6]): 0
Plant response rating, Rape (rape; [7]): 0
Rape plant response rating (rape; [8]): 2
Morningglory plant response rating (morningglory; [1]): 3
Morningglory plant response rating (morningglory; [2]): 0
Morningglory plant response rating (0 to 10 scale) (morningglory; [3]): 0
Morningglory plant response rating (morningglory; [4]): 0
Morningglory plant response rating (morningglory; [5]): 3
Morningglory plant response rating (morningglory; [6]): 3
Plant response rating, Morningglory (morningglory; [7]): 3
Morningglory plant response rating (morningglory; [8]): 4
Nutsedge plant response rating (purple nutsedge; [1]): 0
Nutsedge plant response rating (purple nutsedge; [2]): 0
Nutsedge plant response rating (0 to 10 scale) (purple nutsedge; [3]): 0
Nutsedge plant response rating (purple nutsedge; [4]): 0
Nutsedge plant response rating (purple nutsedge; [5]): 0
Nutsedge plant response rating (purple nutsedge; [6]): 0
Plant response rating, Nutsedge (purple nutsedge; [7]): 0
Nutsedge plant response rating (purple nutsedge; [8]): 0
Redroot pigweed plant response rating (pigweed; [1]): 2
Redroot pigweed plant response rating (pigweed; [2]): 0
Redroot pigweed plant response rating (0 to 10 scale) (pigweed; [3]): 0
Redroot pigweed plant response rating (pigweed; [4]): 0
Redroot pigweed plant response rating (pigweed; [5]): 1
Redroot pigweed plant response rating (pigweed; [6]): 0
Plant response rating, Redroot pigweed (pigweed; [7]): 4
Redroot pigweed plant response rating (pigweed; [8]): 4
Velvetleaf plant response rating (velvetleaf; [2]): 0
Velvetleaf plant response rating (0 to 10 scale) (velvetleaf; [3]): 1
Velvetleaf plant response rating (velvetleaf; [4]): 4
Velvetleaf plant response rating (velvetleaf; [5]): 4
Plant response rating, Velvetleaf (velvetleaf; [7]): 1
Velvetleaf plant response rating (velvetleaf; [8]): 1
B. signalgrass plant response rating (surinam grass; [1]): 1
B. signalgrass plant response rating (surinam grass; [2]): 0
B. signalgrass plant response rating (0 to 10 scale) (surinam grass; [3]): 4
B. signalgrass plant response rating (surinam grass; [4]): 6
B. signalgrass plant response rating (surinam grass; [5]): 6
B. signalgrass plant response rating (surinam grass; [6]): 0
Plant response rating, B. signalgrass (surinam grass; [7]): 5
B. signalgrass plant response rating (surinam grass; Rate 500 g/ha, Postemergence, scale 0 to 10, 0 no effect, 10 complete control): 8
Soybean plant response rating (soybean; [1]): 4
Soybean plant response rating (soybean; [2]): 0
Soybean plant response rating (0 to 10 scale) (soybean; [3]): 0
Soybean plant response rating (soybean; [4]): 0
Soybean plant response rating (soybean; [5]): 0
Soybean plant response rating (soybean; [6]): 2
Plant response rating, Soybean (soybean; [7]): 6
Soybean plant response rating (soybean; [8]): 6
Bedstraw plant response rating (bedstraw; [1]): 0
Bedstraw plant response rating (bedstraw; [2]): 0
Bedstraw plant response rating (0 to 10 scale) (bedstraw; [3]): 1
Bedstraw plant response rating (bedstraw; [4]): 3
Bedstraw plant response rating (bedstraw; [5]): 4
Bedstraw plant response rating (bedstraw; [6]): 0
Plant response rating, Bedstraw (bedstraw; [7]): 4
Bedstraw plant response rating (bedstraw; [8]): 8
